ChEMBL document CHEMBL4610023, “An amide-based sulfenamide prodrug of gamma secretase inhibitor BMS-708163 delivers parent drug from an oral conventional solid dosage form in male beagle dog” (Bioorg Med Chem Lett, 2020)
Converted amounts (≈) assume the structure as drawn.

Columns and labels:
[1] = Chemical stability of compound in aqueous solution assessed as half life at 100 ug/ml and pH 4; format: physicochemical
[2] = Chemical stability of compound in aqueous solution assessed as half life at 100 ug/ml and pH 7.4; format: physicochemical
[3] = Aqueous solubility of compound at pH 6.5; format: physicochemical; conditions: aqueous solution
[4] = Aqueous solubility of compound at pH 2; format: physicochemical; conditions: aqueous solution
[5] = Chemical stability of compound in aqueous solution assessed as half life at 100 ug/ml and pH 1; format: physicochemical
[6] = Drug concentration in Beagle dog plasma at 3 mg/kg, po measured at 24 hrs; format: ADME, organism-based, Canis lupus familiaris
[7] = Tmax in Beagle dog at 3 mg/kg, po; format: ADME, organism-based, Canis lupus familiaris; conditions: in vivo
[8] = Cmax in Beagle dog at 3 mg/kg, po; format: ADME, organism-based, Canis lupus familiaris; set-up: dose 3 mg/kg, route oral; conditions: in vivo
[9] = AUC (0 to 24 hrs) in Beagle dog at 3 mg/kg, po; format: ADME, organism-based, Canis lupus familiaris; set-up: time < 24 hr, dose 3 mg/kg, route oral; conditions: in vivo
[10] = Oral bioavailability in Beagle dog at 3 mg/kg; format: ADME, organism-based, Canis lupus familiaris; conditions: in vivo

Compound `CCOC(=O)[C@@H](N)CSNC(=O)[C@@H](CCC(F)(F)F)N(Cc1ccc(-c2ncon2)cc1F)S(=O)(=O)c1ccc(Cl)cc1` has a half-life at 100 ug/ml [1] of 258 h, a half-life at 100 ug/ml [2] of 23 h and a solubility [3] of 10 µg/mL (≈ 15 µM). It also gave a solubility [4] of 4300 µg/mL (≈ 6440 µM) and a half-life at 100 ug/ml [5] of over 500 h.
Compound `N[C@@H](CSNC(=O)[C@@H](CCC(F)(F)F)N(Cc1ccc(-c2ncon2)cc1F)S(=O)(=O)c1ccc(Cl)cc1)C(=O)O` has a half-life at 100 ug/ml [1] of 418 h, a half-life at 100 ug/ml [2] of 72 h and a solubility [3] of 260 µg/mL (≈ 406 µM). For the same compound, the solubility [4] was 510 µg/mL (≈ 797 µM) and the half-life at 100 ug/ml [5] was over 500 h.
`O=C(NSc1ccccc1)[C@@H](CCC(F)(F)F)N(Cc1ccc(-c2ncon2)cc1F)S(=O)(=O)c1ccc(Cl)cc1` gave a half-life at 100 ug/ml [1] of over 500 h, a half-life at 100 ug/ml [2] of 268 h and a solubility [3] of under 1 µg/mL. It also gave a solubility [4] of under 1 µg/mL and a half-life at 100 ug/ml [5] of over 500 h.
`NCCSNC(=O)[C@@H](CCC(F)(F)F)N(Cc1ccc(-c2ncon2)cc1F)S(=O)(=O)c1ccc(Cl)cc1` gave a half-life at 100 ug/ml [1] of over 500 h, a half-life at 100 ug/ml [2] of 52 h and a solubility [3] of 321 µg/mL (≈ 539 µM). It also gave a solubility [4] of over 10000 µg/mL and a half-life at 100 ug/ml [5] of over 500 h.
With `N#CCCSNC(=O)[C@@H](CCC(F)(F)F)N(Cc1ccc(-c2ncon2)cc1F)S(=O)(=O)c1ccc(Cl)cc1` the half-life at 100 ug/ml [1] was over 500 h, the half-life at 100 ug/ml [2] was 197 h and the solubility [3] was under 1 µg/mL. It also gave a solubility [4] of under 1 µg/mL and a half-life at 100 ug/ml [5] of over 500 h.
For `NC(=O)[C@@H](CCC(F)(F)F)N(Cc1ccc(-c2ncon2)cc1F)S(=O)(=O)c1ccc(Cl)cc1` [AVAGACESTAT], the solubility [3] was under 1 µg/mL, the concentration at 24 h [6] was 98 to 442 nM and the Tmax [7] was 1 to 2 h. For the same compound, the Cmax [8] was 881 to 1150 nM and the AUC(0-t) at 24 h [9] was 5.25 to 14.6 µM·h.
For `COC(=O)[C@@H](N)CSNC(=O)[C@@H](CCC(F)(F)F)N(Cc1ccc(-c2ncon2)cc1F)S(=O)(=O)c1ccc(Cl)cc1`, the half-life at 100 ug/ml [1] was 185 h, the half-life at 100 ug/ml [2] was 15 h and the solubility [3] was 21 µg/mL (≈ 32.1 µM). For the same compound, the solubility [4] was 3900 µg/mL (≈ 5960 µM), the concentration at 24 h [6] was 90 to 474 nM and the Tmax [7] was 2 h. The bioavailability [10] was 107 to 115%, the Cmax [8] was 707 to 1170 nM and the half-life at 100 ug/ml [5] was over 500 h. The AUC(0-t) at 24 h [9] was 6.03 to 15.8 µM·h.
